Test system: SEM cells
Assay: cell viability relative to DMSO control; higher = less cytotoxic
Settings: 48 h
Outline: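 Viability, reported as a per-plate percentage of DMSO wells with cell-free wells as background, came from CellTiter-Glo One luminescence. Reading took place after 48 h at 37°C. Before that, NOMO1 or SEM (500 cells/well) or P12-Ichikawa (1000 cells/well) leukemia cells, adapted for at least four passages in each medium, were seeded in 1536-well plates (5 μl) and pin-dosed with library compounds in DMSO, 47 μM to 0.79 nM over 11 threefold points.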

[1] = HPLM + 10% dialyzed FBS, 0.000781 µM
[2] = HPLM + 10% dialyzed FBS, 0.00234 µM
[3] = HPLM + 10% dialyzed FBS, 0.00702 µM
[4] = HPLM + 10% dialyzed FBS, 0.0211 µM
[5] = HPLM + 10% dialyzed FBS, 0.0632 µM
[6] = HPLM + 10% dialyzed FBS, 0.19 µM
[7] = HPLM + 10% dialyzed FBS, 0.569 µM
[8] = HPLM + 10% dialyzed FBS, 1.71 µM
[9] = HPLM + 10% dialyzed FBS, 5.12 µM
[10] = HPLM + 10% dialyzed FBS, 15.4 µM
[11] = HPLM + 10% dialyzed FBS, 46.1 µM
[12] = RPMI 5 mM glucose + 10% FBS, 0.000781 µM
[13] = RPMI 5 mM glucose + 10% FBS, 0.00234 µM
[14] = RPMI 5 mM glucose + 10% FBS, 0.00702 µM
[15] = RPMI 5 mM glucose + 10% FBS, 0.0211 µM
[16] = RPMI 5 mM glucose + 10% FBS, 0.0632 µM
[17] = RPMI 5 mM glucose + 10% FBS, 0.19 µM
[18] = RPMI 5 mM glucose + 10% FBS, 0.569 µM
[19] = RPMI 5 mM glucose + 10% FBS, 1.71 µM
[20] = RPMI 5 mM glucose + 10% FBS, 5.12 µM
[21] = RPMI 5 mM glucose + 10% FBS, 15.4 µM
[22] = RPMI 5 mM glucose + 10% FBS, 46.1 µM
[23] = RPMI 5 mM glucose + 10% dialyzed FBS, 0.000781 µM
[24] = RPMI 5 mM glucose + 10% dialyzed FBS, 0.00234 µM
[25] = RPMI 5 mM glucose + 10% dialyzed FBS, 0.00702 µM
[26] = RPMI 5 mM glucose + 10% dialyzed FBS, 0.0211 µM
[27] = RPMI 5 mM glucose + 10% dialyzed FBS, 0.0632 µM
[28] = RPMI 5 mM glucose + 10% dialyzed FBS, 0.19 µM
[29] = RPMI 5 mM glucose + 10% dialyzed FBS, 0.569 µM
[30] = RPMI 5 mM glucose + 10% dialyzed FBS, 1.71 µM
[31] = RPMI 5 mM glucose + 10% dialyzed FBS, 5.12 µM
[32] = RPMI 5 mM glucose + 10% dialyzed FBS, 15.4 µM
[33] = RPMI 5 mM glucose + 10% dialyzed FBS, 46.1 µM

SMILES	cell viability [1]	cell viability [2]	cell viability [3]	cell viability [4]	cell viability [5]	cell viability [6]	cell viability [7]	cell viability [8]	cell viability [9]	cell viability [10]	cell viability [11]	cell viability [12]	cell viability [13]	cell viability [14]	cell viability [15]	cell viability [16]	cell viability [17]	cell viability [18]	cell viability [19]	cell viability [20]	cell viability [21]	cell viability [22]	cell viability [23]	cell viability [24]	cell viability [25]	cell viability [26]	cell viability [27]	cell viability [28]	cell viability [29]	cell viability [30]	cell viability [31]	cell viability [32]	cell viability [33]
CCn1c(C(=O)N(C2CC2)C2CC2)cc2c3c(ncn3C)c(Nc3cc(C)n(C)n3)nc21	75.8%	100%	113%	99.9%	107%	101%	99.9%	106%	94.3%	78.8%	55.3%	71.3%	114%	119%	121%	119%	123%	110%	106%	93%	91.3%	26.7%	75.7%	109%	117%	107%	104%	100%	102%	112%	82.8%	66.8%	34.1%
CC[C@H](CO)Nc1nc(NCc2ccccc2)c2ncn(C(C)C)c2n1	89.9%	96.2%	95.3%	86.9%	93.7%	96.8%	83.7%	99.8%	94%	98.1%	58.7%	114%	97.4%	128%	111%	112%	126%	126%	99.9%	108%	120%	63.6%	102%	102%	88.6%	88.2%	90.8%	95.6%	98%	97%	102%	88.1%	35.3%
NC(=O)c1nnn(Cc2cc(Cl)c(C(=O)c3ccc(Cl)cc3)c(Cl)c2)c1N	112%	116%	125%	107%	127%	128%	135%	116%	111%	124%	89.4%	115%	133%	117%	114%	112%	127%	120%	110%	107%	106%	67.6%	88.6%	113%	89.8%	90.5%	116%	95.1%	99.7%	101%	107%	97.6%	48.6%
COc1cccc(OC)c1-c1cc(C(=O)NC2(C(=O)O)C3CC4CC(C3)CC2C4)nn1-c1ccnc2cc(Cl)ccc12 (stereo not given)	107%	94.1%	96.4%	109%	115%	112%	117%	102%	104%	97.8%	112%	89.7%	98%	106%	92.4%	107%	98.4%	104%	110%	117%	92.6%	79.2%	95.2%	118%	109%	126%	96.3%	119%	117%	102%	116%	118%	113%
c1cc2c(cc1[C@H]1OC[C@H]3[C@@H]1CO[C@@H]3c1ccc3c(c1)OCO3)OCO2	113%	105%	119%	123%	126%	119%	126%	110%	119%	108%	92.4%	124%	102%	117%	129%	131%	135%	117%	113%	107%	100%	103%	108%	115%	144%	130%	113%	140%	130%	132%	103%	118%	86.4%
Cc1cnc(Nc2cccc(CN3CCOCC3)c2)nc1Nc1cccc([S+](=O)([O-])NC(C)(C)C)c1	77.4%	80.3%	97.3%	91.7%	74.4%	72.1%	84.7%	36.4%	15.7%	69.1%	53.6%	79.7%	88.8%	94.5%	110%	82.1%	87.9%	79%	58%	9.88%	74%	21.9%	79.6%	93.5%	93.5%	84.9%	72.5%	64%	81.8%	17.9%	9.6%	66.4%	39.3%
O=C(Nc1ccccc1)Nc1ccc(-c2ccc(C(=O)[C@@H]3CCC[C@H]3C(=O)O)cc2)cc1	101%	111%	101%	110%	110%	103%	99.8%	107%	108%	106%	105%	102%	102%	111%	108%	109%	99.5%	114%	97.6%	94.6%	91.2%	114%	109%	103%	107%	124%	104%	99.7%	101%	95.4%	113%	107%	123%
NC(=O)N1CCC(CC(=O)N2CCC([C@H]3c4ncc(Br)cc4CCc4cc(Cl)cc(Br)c43)CC2)CC1	106%	99.3%	114%	124%	111%	118%	72.5%	57.1%	48.6%	45.7%	34.8%	114%	122%	120%	129%	111%	122%	82.4%	66.3%	46%	44.4%	24.1%	98.1%	109%	110%	101%	97.2%	114%	95.9%	84.4%	56.1%	58%	17.8%
Cc1cc(/C=c2/sc3nc4ccccc4n3c2=O)c(C)n1-c1ccccc1	115%	121%	93.5%	122%	112%	128%	125%	108%	128%	110%	101%	117%	119%	113%	137%	117%	122%	130%	128%	125%	125%	118%	117%	110%	99.1%	121%	128%	122%	108%	118%	111%	113%	116%
CN1CCC(CNc2ccc3ncc(-c4cccc(OC(F)(F)F)c4)n3n2)CC1	107%	102%	104%	95.6%	89.1%	89.7%	74.5%	49.7%	41.6%	32.2%	5.1%	109%	110%	113%	97.4%	96.4%	97.6%	78.3%	52.9%	42.5%	35.5%	6.26%	93.3%	109%	92.8%	98.7%	99.4%	87.3%	77.3%	42.3%	32.4%	30.4%	6.78%
Cc1noc(N[S+](=O)([O-])c2ccc(N)cc2)c1C	80.2%	93.5%	104%	88.1%	93.2%	102%	83.1%	96.3%	99.8%	90.1%	102%	87.6%	97.5%	89.7%	88.5%	96.2%	110%	96%	114%	98%	100%	92.3%	99.2%	91.5%	96.3%	89.5%	120%	103%	111%	104%	103%	108%	99.1%
CCCCCN(C)CCC(O)(P(=O)([O-])O)P(=O)(O)O	57.1%	71.9%	72.8%	85.3%	71.8%	91.8%	88.3%	21.9%	82.8%	104%	75.2%	74.5%	88.1%	84.1%	90.4%	75.5%	100%	98.3%	16.9%	77.5%	107%	73.3%	70%	85.4%	69%	95.7%	71.5%	87.9%	83.2%	17.4%	86.4%	102%	78.4%
O=C(NOCC1CC1)c1ccc(F)c(F)c1Nc1ccc(I)cc1Cl	91%	87.8%	109%	113%	99.7%	99.5%	113%	116%	95.8%	75.5%	77.1%	95.8%	93.7%	112%	108%	94.7%	93.8%	106%	94.2%	85.5%	67.3%	53.1%	101%	89.9%	115%	104%	102%	78.2%	103%	89.6%	84.8%	59.7%	59.7%
COC(=O)[C@H](Cc1ccccc1)NC(=O)[C@@H](N)CC(=O)O	128%	106%	111%	103%	130%	110%	126%	119%	103%	120%	116%	125%	98.5%	121%	112%	122%	118%	128%	119%	100%	123%	116%	124%	106%	104%	107%	123%	122%	111%	116%	98.3%	110%	104%
Cc1nnc(C(=O)NC(C)(C)c2nc(C(=O)NCc3ccc(F)cc3)c(O)c(=O)n2C)o1	107%	111%	116%	102%	101%	123%	113%	108%	104%	108%	107%	96.7%	101%	99.2%	120%	125%	93.8%	107%	80.8%	90.9%	97%	111%	105%	106%	109%	122%	109%	117%	107%	109%	93.9%	98.9%	110%
